Measurements taken from patent US11291655B2, “RAD51 inhibitors” (Cyteir Therapeutics, Inc., priority 2017, dated 2022).

The molecules below were run on Daudi Cell Culture (assay: Compound primary screening in Daudi cell culture). Settings: Homo sapiens, 168 h; Daudi cells, 1250 cells per well, reads on Day 7.
Type: cell-based
Procedure: Compound Primary Screening
1. Materials and Supplies
Plastic ware and consumables needed for this experiment include: Cell Culture media; Evaporation Buffer media; 100% DMSO; 96 well U-bottom sterile culture plates; 250 mL bottle; 1.5 mL Opaque amber epi tubes; Epi Tube rack; 300 mL reservoirs; 25 mL reservoir; 25 mL serological pipette tips; 5 mL serological pipette tips P1000 Pipette Tips; and P200 Pipette Tips.
Equipment needed for this experiment include: Viaflo 384 liquid handler; Eppendorf serological pipette; Eppendorf P1000 Pipette; and Eppendorf P200 Pipette
Daudi Cell Culture is also needed for this experiment.
Lastly, compounds (e.g., the compounds of this invention) to be tested are needed.
All steps were performed in a sterile environment inside the Biosafety cabinet.
A 96 well u-bottom plate was prepared by writing the experiment number, plate number, date and initials in the top right corner of the plate lid. With a sterile 300 ml reservoir, and 25 ml serological pipette, evaporation buffer media was pipetted into reservoir in 25 ml increments. Using the liquid handler, 150 ul of evaporation buffer media was pipetted from reservoir into rows A and H, and Columns 1 and 12 of the 96 well u-bottom plate. Cell cultures were counted to obtain the density of cells per ml, and the culture viability. The cell density information was used to obtain 1,000,000 cells from culture using a 5 mL serological pipette into an epi tube. The cell density information from the culture was used to calculate the number of cells and volume of media needed for the assay to seed 1250 cells in 130 ul of media per available culture well in the 96 well u-bottom plate. Rows B through F were used for cells (50 wells in total), with row G left for an empty media control. The calculation was overestimated by 10 mL to account for the dead volume in the 300 ml reservoir. Once the media volume was calculated, the appropriate volume of media was pipetted in 25 mL increments into the 250 mL bottle using a 25 mL serological pipette. The 250 ml bottle was capped tightly, and placed into a 37° C. water bath for 2 minutes. While the culture media was warming, 10 mL of fresh media was pipetted from the 500 mL culture media bottle into a sterile 25 mL reservoir. Using the Eppendorf multichannel pipette, 130 ul of media was pipetted from the 25 mL reservoir into row G of the 96 well u-bottom plate. Once the 250 mL bottle of media was warmed, the volume of culture needed was pipetted into the bottle, and mixed gently with a 25 mL serological pipette as to not create bubbles, and then the contents of the bottle were pipetted into a new 300 mL reservoir. Using the liquid handler, 130 ul of culture was pipetted from the 300 mL reservoir into rows B through F of the 96 well u-bottom plate. Once the culture was added, the plate was placed into a 37° C. incubator until the compound master plate was prepared for use.
Two 96 well u-bottom plates were prepared by writing the master plate name in the upper right corner of the plate lid. Labeling one DMSO master and the other Media Master. The compounds of interest were obtained from the laboratory freezer, and placed into a 25 well storage box with a lid, and set the box aside. The compounds were vortexed after thawing but before use. Using an automatic multichannel pipette, 20 ul of 100% DMSO was pipetted into wells B3-B11 through G3-G11 of the DMSO master plate. For each compound on the master plate, 50 ul of the compound were pipetted in the appropriate well of row 2 (reference plate map to determine appropriate well). A serial dilution was prepared beginning by aspirating 20 ul from row 2 and mixing with row 3, repeating until row 11 was reached. Using the liquid handler, 194 ul of Daudi media was dispensed into wells B2-B11 through G2-G11 of the Media master plate. Using the liquid handler, 6 ul from the DMSO master plate was aspirated and dispensed into the media master plate, mixing 100 ul twice. […]

`CC(C)OC(=O)Nc1ccc(-c2ncc(-c3ccc(N4CCCOC4=O)cc3S(=O)(=O)NC(C)(C)C)s2)cc1` [Compound J24, isopropyl N-[4-[5-[2-(tert-butylsulfamoyl)-4-(2-oxo-1,3-oxazinan-3-yl)phenyl]thiazol-2-yl]phenyl]carbamate] and `CC(C)OC(=O)Nc1ccc(-c2ncc(-c3ccc(N4CCOC4=O)cc3S(=O)(=O)NC(C)(C)C)s2)cc1` [Compound J23, isopropyl N-[4-[5-[2-(tert-butylsulfamoyl)-4-(2-oxooxazolidin-3-yl)phenyl]thiazol-2-yl]phenyl]carbamate] cannot be ordered by EC50: < 5 µM for the first, < 5 µM for the second.

`CC(C)OC(=O)Nc1ccc(-c2ncc(-c3ccc(CO)cc3S(=O)(=O)NC(C)(C)C)s2)cc1` [Compound J1] and `COC(=O)NCc1ccc(-c2cnc(-c3ccc(NC(=O)OC(C)C)cc3)s2)c(S(=O)(=O)NC(C)(C)C)c1` [Compound P7] cannot be ordered by EC50: < 5 µM for the first, < 10 µM for the second.

`CC(C)OC(=O)Nc1ccc(-c2ncc(-c3ccc(CNC(=O)CCO)cc3S(=O)(=O)NC(C)(C)C)s2)cc1` [Compound O3] and `CC(C)OC(=O)Nc1ccc(-c2ncc(-c3ccc(CNC(=O)C(C)(C)C)cc3S(=O)(=O)NC(C)(C)C)s2)cc1` [Compound P3] cannot be ordered by EC50: > 10 µM for the first, > 10 µM for the second.

`CC(=O)N(C)c1ccc(-c2cnc(-c3ccc(NC(=O)OC(C)C)cc3)s2)c(S(=O)(=O)NC(C)(C)C)c1` [Compound E20] and `CC(C)OC(=O)Nc1ccc(-c2ncc(-c3ccc(CNS(C)(=O)=O)cc3S(=O)(=O)NC(C)(C)C)s2)cc1` [Compound P5] cannot be ordered by EC50: < 10 µM for the first, < 10 µM for the second.

`CC(C)OC(=O)Nc1ccc(-c2ncc(-c3ccc(NCC(F)(F)F)cc3S(=O)(=O)NC(C)(C)C)s2)cc1` [Compound I3, isopropyl N-[4-[5-[2-(tert-butylsulfamoyl)-4-(2,2,2-trifluoroethylamino)phenyl]thiazol-2-yl]phenyl]carbamate] and `CC(C)OC(=O)Nc1ccc(-c2ncc(-c3ccc(NC(=O)OCCO)cc3S(=O)(=O)NC(C)(C)C)s2)cc1` [Compound B1] cannot be ordered by EC50: < 5 µM for the first, < 5 µM for the second.

`CC(C)OC(=O)Nc1ccc(-c2ncc(-c3ccc(N4CC(C)OC4=O)cc3S(=O)(=O)NC(C)(C)C)s2)cc1` (stereo not drawn) [Compound J26, isopropyl (4-(5-(2-(N-(tert-butyl)sulfamoyl)-4-(5-methyl-2-oxooxazolidin-3-yl)phenyl)thiazol-2-yl)phenyl)carbamate] and `CC(C)OC(=O)Nc1ccc(-c2ncc(-c3ccc(N4CCCC4=O)cc3S(=O)(=O)NC(C)(C)C)s2)cc1` [Compound J4] cannot be ordered by EC50: < 10 µM for the first, < 5 µM for the second.

Going from `CC(C)OC(=O)Nc1ccc(-c2ncc(-c3ccc(CNC(=O)c4cncnc4)cc3S(=O)(=O)NC(C)(C)C)s2)cc1` [Compound O8] to `CC(C)OC(=O)Nc1ccc(-c2ncc(-c3ccc(CNC(=O)c4ccccc4)cc3S(=O)(=O)NC(C)(C)C)s2)cc1` [Compound P4], the EC50 rises from < 10 µM to > 10 µM.

`CC(=O)Nc1ccc(-c2cnc(-c3ccc(NS(=O)(=O)c4ccccc4)cc3)s2)c(S(=O)(=O)NC(C)(C)C)c1` [Compound G6] and `CC(=O)Nc1ccc(-c2cnc(-c3ccc(NC(=S)NCc4ccccc4)cc3)s2)c(S(=O)(=O)NC(C)(C)C)c1` [Compound L9] cannot be ordered by EC50: < 10 µM for the first, < 5 µM for the second.

`COCCOC(=O)Nc1ccc(-c2cnc(-c3ccc(NC(=O)OC(C)C)cc3)s2)c(S(=O)(=O)NC(C)(C)C)c1` [Compound B2] and `CC(C)OC(=O)Nc1ccc(-c2ncc(-c3ccc(NC(=O)OCc4nccs4)cc3S(=O)(=O)NC(C)(C)C)s2)cc1` [Compound B11] cannot be ordered by EC50: < 1 µM for the first, < 1 µM for the second.

`CC(=O)Nc1ccc(-c2cnc(-c3ccc(NC(=S)NC(C)C)cc3)s2)c(S(=O)(=O)NC(C)(C)C)c1` [Compound D30] and `CC(=O)Nc1ccc(-c2cnc(-c3ccc(NC(=O)NC(C)C)cc3)s2)c(S(=O)(=O)NC(C)(C)C)c1` [Compound G10] cannot be ordered by EC50: < 5 µM for the first, < 10 µM for the second.

First: CC(C)NC(=S)Nc1ccc(-c2ncc(-c3ccc(N(C)C(=O)N(C)Cc4ccccc4)cc3S(=O)(=O)NC(C)(C)C)s2)cc1 [Compound Q4]
Second: CC(C)NC(=S)Nc1ccc(-c2ncc(-c3ccc(NC(=O)OCc4ccccc4)cc3S(=O)(=O)NC(C)(C)C)s2)cc1 [Compound L4]
The EC50 of the first is lower: < 1 µM for the first, > 10 µM for the second.

`CC(C)OC(=O)N(C)c1ccc(-c2ncc(-c3ccc(N4CCCC4=O)cc3S(=O)(=O)NC(C)(C)C)s2)cc1` [Compound J8, isopropyl N-[4-[5-[2-(tert-butylsulfamoyl)-4-(2-oxopyrrolidin-1-yl)phenyl]thiazol-2-yl]phenyl]-N-methyl-carbamate] and `COc1cc(-c2ncc(-c3ccc(N4CCCC4=O)cc3S(=O)(=O)NC(C)(C)C)s2)ccc1NC(=O)OC(C)C` [Compound J16] cannot be ordered by EC50: < 10 µM for the first, < 10 µM for the second.

`CC(=O)Nc1ccc(-c2cnc(-c3ccc(NC(=S)NC(C)C)cc3)s2)c(S(=O)(=O)NC(CO)CO)c1` [Compound D11] and `COCCNS(=O)(=O)c1cc(NC(C)=O)ccc1-c1cnc(-c2ccc(NC(=S)NC(C)C)cc2)s1` [Compound D27] cannot be ordered by EC50: > 10 µM for the first, > 10 µM for the second.

Compared with `CC(=O)Nc1ccc(-c2cnc(-c3ccc(NC(=O)CC(C)C)cc3)s2)c(S(=O)(=O)NC(C)(C)C)c1` [Compound G4], `CC(=O)Nc1ccc(-c2cnc(-c3cccc(NC(=O)OC(C)C)c3)s2)c(S(=O)(=O)NC(C)(C)C)c1` [Compound J14] is lower in EC50: > 10 µM for the first, < 10 µM for the second.

`CC(C)OC(=O)Nc1ccc(-c2ncc(-c3ccc(N4CCN(Cc5ccccc5)C4=O)cc3S(=O)(=O)NC(C)(C)C)s2)cc1` [Compound J21] and `CC(C)OC(=O)Nc1ccc(-c2ncc(-c3ccc(N4CC(Cc5ccccc5)OC4=O)cc3S(=O)(=O)NC(C)(C)C)s2)cc1` (stereo not drawn) [Compound J27, isopropyl (4-(5-(4-(5-benzyl-2-oxooxazolidin-3-yl)-2-(N-(tert-butyl)sulfamoyl)phenyl)thiazol-2-yl)phenyl)carbamate] cannot be ordered by EC50: > 10 µM for the first, > 10 µM for the second.

First: CC(C)OC(=O)Nc1ccc(-c2ncc(-c3ccc(CNC(=O)OCc4ccccc4)cc3S(=O)(=O)NC(C)(C)C)s2)cc1 [Compound Q2, isopropyl N-[4-[5-[4-(benzyloxycarbonylaminomethyl)-2-(tert-butylsulfamoyl)phenyl]thiazol-2-yl]phenyl]carbamate]
Second: CC(C)OC(=O)Nc1ccc(-c2ncc(-c3ccc(CNS(=O)(=O)c4ccccc4)cc3S(=O)(=O)NC(C)(C)C)s2)cc1 [Compound P6]
The EC50 of the first is higher: > 10 µM for the first, < 10 µM for the second. The second is the more potent here.

`CC(C)NC(=O)Nc1ccc(-c2ncc(-c3ccc(NS(C)(=O)=O)cc3S(=O)(=O)NC(C)(C)C)s2)cc1` [Compound J15] and `CC(C)NC(=S)Nc1ccc(-c2ncc(-c3ccc(NC(=O)NCc4ncc[nH]4)cc3S(=O)(=O)NC(C)(C)C)s2)cc1` [Compound N5] cannot be ordered by EC50: > 10 µM for the first, > 10 µM for the second.

`CC(C)OC(=O)Nc1ccc(-c2ncc(-c3ccc(NC(=O)OCc4cccnc4)cc3S(=O)(=O)NC(C)(C)C)s2)cc1` [Compound B9] and `CC(C)OC(=O)Nc1ccc(-c2ncc(-c3ccc(CNC(=O)Cc4ccncc4)cc3S(=O)(=O)NC(C)(C)C)s2)cc1` [Compound O5] cannot be ordered by EC50: < 1 µM for the first, < 5 µM for the second.

`CC(=O)Nc1ccc(-c2cnc(-c3ccc(NC(=S)NC(C)C)cc3)s2)c(S(=O)(=O)NCc2ccccc2)c1` [Compound D19] and `COC(=O)CNS(=O)(=O)c1cc(NC(C)=O)ccc1-c1cnc(-c2ccc(NC(=S)NC(C)C)cc2)s1` [Compound D20] cannot be ordered by EC50: > 10 µM for the first, > 10 µM for the second.

`CC(=O)Nc1ccc(-c2cnc(-c3ccc(NC(C)=O)cc3S(=O)(=O)NC(C)(C)C)s2)c(S(=O)(=O)NC(C)(C)C)c1` [Compound E3] and `CC(C)OC(=O)Nc1ccc(-c2ncc(-c3ccc(-c4ccn[nH]4)cc3S(=O)(=O)NC(C)(C)C)s2)cc1` [Compound J2] cannot be ordered by EC50: < 10 µM for the first, < 5 µM for the second.

Going from `CC(=O)Nc1ccc(-c2cnc(-c3ccc(NC(=S)NC(C)C)cc3)s2)c(S(=O)(=O)N[C@H]2CC[C@H](O)CC2)c1` [Compound D7] to `CC(=O)Nc1ccc(-c2cnc(-c3ccc(NC(=S)NC(C)C)cc3)s2)c(S(=O)(=O)NCCCN(C)C)c1` [Compound D25], the EC50 falls from > 10 µM to < 1 µM.
